Experimental data reported in a melting point compilation (Tetko et al.).

First: COC(=O)N/C=C/c1ccccc1[N+](=O)[O-]
Second: O=[N+]([O-])/C(=C/c1ccccc1[N+](=O)[O-])c1ccccc1
The melting point of the first is higher: 146 to 148 °C for the first, 107 °C for the second.

First: O=[N+]([O-])c1cc(C(F)(F)F)ccc1N1CCCC1
Second: O=Cc1ccc(N2CCCCC2)nc1
The melting point of the first is higher: 54 to 56 °C for the first, 43 °C for the second.

First: COc1cc(OC)n2nc(S(=O)(=O)Nc3c(Cl)ccc(C)c3Cl)nc2n1
Second: COc1ccc(C=C2C(=O)NC(=N)N2C)cc1OC
The melting point of the first is lower: 211 °C for the first, 243 to 245 °C for the second.

First: Cc1cc([N+](=O)[O-])ccc1C(=O)O
Second: N=C1SCCN1CC(=O)c1ccc([N+](=O)[O-])cc1
The melting point of the first is lower: 154 °C for the first, 210 °C for the second.

First: N#CCS(=O)(=O)c1ccc(F)cc1
Second: O=C(O)CSc1ccc(F)cc1
The melting point of the first is higher: 87 to 89 °C for the first, 78 °C for the second.

Going from `Cc1ccc(C(=O)c2nn3c(nc(=O)c4ccccc43)s2)cc1` to `COc1ccc(C(=O)OC2Cc3ccccc32)cc1` (stereo not drawn), the melting point falls from 211 °C to 124 °C.

First: Oc1ccc(Cl)c2c1CCC2
Second: Nc1cc(O)c(Cl)cc1Cl
The melting point of the first is lower: 92 °C for the first, 133 to 137 °C for the second.

First: Fc1cc(I)ccn1
Second: OCc1cc2cccnc2s1
The melting point of the first is higher: 58 °C for the first, 47 to 49 °C for the second.

`C=CC(=O)OC1CC2CCC1(C)C2(C)C` (stereo not drawn) and `CC12CCC(C(=Cc3ccccc3)C1=O)C2(C)C` (stereo not drawn) are the same in melting point: 97 °C for the first, 97 °C for the second.

First: COC(=O)c1nc(Cl)c(N)nc1N
Second: CSc1nc(N)c(C(C)=O)s1
The melting point of the first is higher: 212 °C for the first, 159 to 160 °C for the second.

Compared with `O=[N+]([O-])c1ccc(C(Cl)C(Cl)c2ccc(C(Cl)C(Cl)c3ccc([N+](=O)[O-])cc3[N+](=O)[O-])cc2)c([N+](=O)[O-])c1` (stereo not drawn), `N#Cc1ccc(C(Cl)C(Cl)c2cccc(C(Cl)C(Cl)c3ccc(C#N)cc3[N+](=O)[O-])c2)c([N+](=O)[O-])c1` (stereo not drawn) is higher in melting point: 92 to 99 °C for the first, 248 °C for the second.

First: CCOC(=O)c1cn[nH]c1NC(=O)Nc1ccc(Cl)c(Cl)c1
Second: CCOC(=O)c1cc(C)nc2ccc(Br)cc12
The melting point of the first is higher: 269 to 270 °C for the first, 110 to 111 °C for the second.

First: Cn1cc(Br)c(CCl)n1
Second: Cn1ncc(Br)c1C=O
The melting point of the first is higher: 76.5 to 78.5 °C for the first, 70 °C for the second.

Compared with `COc1ccc(C(=O)/C=C(\C)c2ccc(OC)cc2)cc1`, `COc1ccc(-c2cc3ccccc3cn2)cc1` is higher in melting point: 86 to 87 °C for the first, 98.5 to 100 °C for the second.

Compared with `CC(C)(C)NCCO`, `CC(C)(C)NCC(O)COc1ccccc1C1CCCC1` (stereo not drawn) is higher in melting point: 44 °C for the first, 68 °C for the second.

Compared with `Oc1ccc(O)c(O)c1`, `CCCCCCNC(=O)C=Cc1ccc(O)c(O)c1` is higher in melting point: 140 °C for the first, 142 °C for the second.

Compared with `O=C(CN1CCNCC1)N1CCOCC1`, `O=Cc1ccc(CN2CCOCC2)cc1` is lower in melting point: 63 to 65 °C for the first, 53 to 56 °C for the second.

Compared with `CCOC(=O)c1nn(-c2ccc(C)cc2)c(C)c1C(=O)c1noc(-c2ccccc2)c1S(=O)(=O)c1ccccc1`, `O=C(NC(=C(NC(=O)c1ccccc1)c1ccccc1)c1ccccc1)c1ccccc1` is lower in melting point: 169 °C for the first, 100 °C for the second.

Going from `O=[N+]([O-])c1c(O)ncnc1O` to `Cc1nn(C)c2ncnc(N)c12`, the melting point falls from 300 °C to 190 °C.

First: CN(C)c1ccc2c(C(F)(F)F)cc(=O)oc2c1
Second: CN(C)C(=O)Nc1ccc(SC(F)(F)Cl)c(Cl)c1
The melting point of the first is higher: 147 to 149 °C for the first, 114 °C for the second.

Compared with `CC1(c2ccccc2)CC(C(=O)c2cc3ccccc3o2)C1` (stereo not drawn), `c1ccc(Sc2ccc3ccccc3n2)cc1` is lower in melting point: 156 to 157 °C for the first, 48 °C for the second.

First: Brc1ccc(Oc2ccc(Br)cc2Br)cc1
Second: COc1ccc(C2Cc3ccccc3C(O)O2)cc1 (stereo not drawn)
The melting point of the first is lower: 64 to 64.5 °C for the first, 114 °C for the second.

Going from `CC1CCCC1C` (stereo not drawn) to `CCCCCCC1CCCC1`, the melting point falls from -54 °C to -73 °C.

First: O=C1C=CC(=O)N1c1ccc(-c2nc3ccccc3o2)cc1
Second: CC1(C)CC(=O)C(=Cc2ccc(-c3ccc(Cl)cc3)o2)C(=O)C1
The melting point of the first is higher: 211 to 213 °C for the first, 206 °C for the second.

Compared with `CCc1ccccc1Nc1ccccc1CC`, `Cc1ccccc1NC(=S)Nc1ccccc1C` is higher in melting point: 29 °C for the first, 158 °C for the second.

Going from `Cc1cccc2cccnc12` to `Cc1cccc2cc3ccccc3cc12`, the melting point rises from -80 °C to 85.5 °C.

First: CC(C)=CCC(C#N)(CC=C(C)C)C(=O)O
Second: CC=C(CC)C(=O)NC(N)=O
The melting point of the first is lower: 70 to 71 °C for the first, 198 °C for the second.

First: COC(=O)CCC(C)C1CCC2C3CCC4CC(=O)CCC4(C)C3CC(=O)C12C (stereo not drawn)
Second: COC(=O)CCC(C)C1CCC2C3C(OC(C)=O)CC4CC(=O)CCC4(C)C3CC(=O)C12C (stereo not drawn)
The melting point of the first is lower: 129 to 130 °C for the first, 165 to 167 °C for the second.

First: S=c1[nH]ccn1-c1ccccc1
Second: NC(=S)NCCc1ccccc1
The melting point of the first is higher: 177 to 179 °C for the first, 150 to 152 °C for the second.

Going from `O=CC[C@@H](O)[C@H](O)CO` to `C[C@H](O)[C@@H](N)C(=O)O`, the melting point rises from 91 °C to 274 °C.

Compared with `COC1(OC)CC=CCC(OC)(OC)CC=CC1`, `COc1cc(CC#N)cc(OC)c1OC` is lower in melting point: 201 to 202 °C for the first, 77 °C for the second.

Going from `Nc1nc(N)nc(NC2CC2)n1` to `Nc1ccc(N=Nc2ccccc2)c(N)n1`, the melting point falls from 225 °C to 139 °C.

Compared with `CC(=O)N1C(=O)N(C(C)=O)C2C1N(C(C)=O)C(=O)N2C(C)=O` (stereo not drawn), `COCCCn1c(C(=O)O)cc2c(=O)n(C)c(=O)n(C)c21` is lower in melting point: 234 to 238 °C for the first, 166 °C for the second.

First: Cc1cc(O)c2c(c1)C(=O)c1cc(O)cc(O)c1C2=O
Second: Cc1cc(C2(c3cc(C)c(O)c(Br)c3C)OS(=O)(=O)c3ccccc32)c(C)c(Br)c1O
The melting point of the first is higher: 257 °C for the first, 218 °C for the second.

First: COc1ccccc1N/N=C(\C#N)c1nc2ccccc2n1C
Second: Nc1cc2ccccc2c2ccccc12
The melting point of the first is higher: 200 to 202 °C for the first, 138 °C for the second.

First: CC(S)C(=O)NCC(=O)O (stereo not drawn)
Second: CCC(Br)C(=O)O (stereo not drawn)
The melting point of the first is higher: 96 °C for the first, -4 °C for the second.

Going from `CC(C=CC=C(C)C=CC1=C(C)CC(O)CC1(C)C)=CC=CC=C(C)C=CC=C(C)C=CC1=C(C)CC(O)CC1(C)C` (stereo not drawn) to `CC12CCC(=O)C=C1CCC1C3CCC(O)(C(=O)CO)C3(C)CC(O)C12F` (stereo not drawn), the melting point rises from 216 °C to 261 °C.

Compared with `NCCCCCCCCCCN`, `CCCCCCCCCCCCCCCCCCC(C)c1ccccc1` (stereo not drawn) is lower in melting point: 62.5 °C for the first, 29 °C for the second.

Compared with `Brc1ccsc1Br`, `Sc1cccc(Cl)c1Cl` is higher in melting point: -17.5 °C for the first, 57 to 61 °C for the second.

First: CC(c1ccccc1)C(C(=O)O)c1ccccc1 (stereo not drawn)
Second: BrCc1ccccc1COc1ccccc1
The melting point of the first is higher: 129 °C for the first, 53 to 59 °C for the second.

Going from `CC(=O)Oc1ccccc1C(C)=O` to `CCC(C)c1ccccc1OC(=O)NC` (stereo not drawn), the melting point falls from 90 °C to 31.5 °C.

First: O=C1C(=Cc2ccccc2)SC(=S)N1CNc1cccc([N+](=O)[O-])c1
Second: CC1(C)OC(=O)C(=NNc2cccc([N+](=O)[O-])c2)C(=O)O1
The melting point of the first is lower: 190 °C for the first, 192 °C for the second.

Compared with `CN(c1c(Br)cc(Br)cc1Br)c1c([N+](=O)[O-])cc([N+](=O)[O-])cc1C(F)(F)F`, `O=[N+]([O-])c1ccc(SSc2ccc([N+](=O)[O-])cc2)cc1` is higher in melting point: 150 °C for the first, 182 °C for the second.

Compared with `CCCCC(N)P(=O)(O)O` (stereo not drawn), `CCCCCCC(=O)OC` is lower in melting point: 267 to 269 °C for the first, -56 °C for the second.

Compared with `Cc1c(C)c(C)c2c(c1C)CC1(OC2=O)C(=O)c2ccccc2C1=O`, `CSc1cc2c(c3c1CCOc1ccccc1-3)c(=O)n(-c1ccccc1)n2C` is lower in melting point: 257 °C for the first, 176 °C for the second.

First: O=C(NC(=S)Nc1ccccn1)c1ccccc1
Second: CC(CO)(NC(=O)c1ccccc1)C(=O)O (racemic)
The melting point of the first is lower: 144 to 147 °C for the first, 153 to 159 °C for the second.

Going from `C1CCSCC1` to `Cc1ccc(S(=O)(=O)OC2CCCCC2)cc1`, the melting point rises from 19 °C to 46 °C.

Going from `O=C1C2CCC1C1CCC2O1` to `O=c1ccn(C2CC(F)C(CO)O2)c(=O)[nH]1` (stereo not drawn), the melting point rises from 81 °C to 186 °C.

First: CCOC(=O)c1[nH]c2ccccc2c1C
Second: CCOC(=O)c1cnn(-c2ccc(F)cc2)c1N
The melting point of the first is lower: 130 to 133 °C for the first, 153 to 154 °C for the second.

First: COc1ccc(C=C(S)C(=O)O)cc1
Second: CC(CC(=O)c1ccc(Cl)cc1)C(=O)O (stereo not drawn)
The melting point of the first is higher: 140 °C for the first, 137 to 139 °C for the second.

Compared with `O=C(NCCO)C1CCCNC1` (stereo not drawn), `CC(=O)C=C(C)N1CCCC1` is lower in melting point: 119 °C for the first, 114 to 116 °C for the second.

First: CC(=O)c1cccc(O)c1
Second: COC(=O)c1cc(Cl)ccc1NC(C)=O
The melting point of the first is lower: 96 °C for the first, 130 °C for the second.

First: CN1C(=O)NC(=O)C(C)(C2=CCCCC2)C1=O (stereo not drawn)
Second: NC(=S)CCn1cccc(C(F)(F)F)c1=O
The melting point of the first is lower: 146 °C for the first, 154 to 155 °C for the second.

Compared with `CCCCCCOc1ccccc1`, `Cc1ccccc1CCO` is higher in melting point: -19 °C for the first, 2 °C for the second.

Compared with `CC(=O)N(C)c1cccc(-c2ccc3nnc(C)n3n2)c1`, `COc1ccccc1C=CC(=O)c1ccc(O)cc1O` is lower in melting point: 200 to 201 °C for the first, 177 °C for the second.

Compared with `COC(=O)CSc1cc(C(F)(F)F)nc2ccccc12`, `COc1ccc(CCc2cc(OC)c3ccccc3n2)cc1OC` is higher in melting point: 96 to 98 °C for the first, 116 °C for the second.

Going from `CSc1ccc(S)cc1` to `CCCC(=O)c1ccc(F)cc1`, the melting point rises from 13 °C to 37 °C.

First: CC(C)OC(=O)NC(C(=O)NC(C)c1nc2ccc(F)cc2s1)C(C)C (stereo not drawn)
Second: CSCCC(NC(=O)c1cccnc1SC)C(=O)O (stereo not drawn)
The melting point of the first is lower: 153 °C for the first, 157 to 161 °C for the second.

Compared with `O=Cc1cccc2nsnc12`, `BrCc1ccc2nsnc2c1` is lower in melting point: 99 to 101 °C for the first, 91 °C for the second.

Going from `C[Si](C)(C)O[Si](C)(C)O[Si](C)(C)O[Si](C)(C)O[Si](C)(C)O[Si](C)(C)C` to `CCOC(=O)c1ccc(COC(C)=O)o1`, the melting point rises from -59 °C to 42.3 °C.

First: CCCN(CCOc1c(Cl)cc(Cl)cc1Cl)C(=O)n1ccnc1
Second: O=C(O)CCc1ccc(Cl)c(Cl)c1
The melting point of the first is lower: 48.3 °C for the first, 97 to 99 °C for the second.

First: O=C(O)C=C(Br)C(=O)O
Second: O=C=Nc1ccc(Br)cc1Cl
The melting point of the first is higher: 184 °C for the first, 71 to 75 °C for the second.

Compared with `Nc1ccccc1OCCN1CCOCC1`, `NC(=S)c1ccc2occc2c1` is higher in melting point: 41 to 42 °C for the first, 98.6 °C for the second.

First: N#Cc1cc([N+](=O)[O-])ccc1Sc1nnc(N)s1
Second: c1ccc(P(CCP(c2ccccc2)c2ccccc2)c2ccccc2)cc1
The melting point of the first is higher: 245 to 246 °C for the first, 141 °C for the second.
